# Experimental data reported in PMC12520456, “Regulating Enzyme Activity via Microaggregates Mediated by Phase Separation” (Advanced Science, 2025).
# Non-standard residues stand in square brackets, D forms with d. Residues, ends and D or L forms follow the SMILES beside them.
# Columns and labels:
# [1] = system: trypsin and chymotrypsin in ascitic fluid; experiment: Ex vivo ascitic fluid from lethal POPF model: aggregates, FRAP, enzyme activity; format: biochemical, rat
# From the text: This ex vivo evidence confirms that DPMD mitigates POPF via an LSPS‐based mechanism: by assembling leaking pancreatic enzymes into non‐fusing microaggregates, DPMD effectively isolates and inactivates the enzymes, thereby preventing proteolytic damage to surrounding tissues.
# Figure S13. (A) The evaluation of fluorescence polarization of DPMD with different volumes ascites. ( B) Representative time -lapse FRAP images howling the pre -bleach and recovery signals of DPMD -treated asciteschymotrypsin ex vitro. Circles indicate the bleached area. Scale bars, 10 μm and 1 μm (zoomed -in image). (C) Time-lapse images of DPMD-ascites mixture aggregates, illustrating the non-fusion of two aggregates. (D) The inhibition evaluation of enzymes in ascites bioactivity for trypsin and chymotrypsin by DPMD.
# (§1) (1 picture or pasted object on this page, not shown here)
# [2] = Turbidity and CLSM phase separation of DPMD with trypsin/chymotrypsin; format: physicochemical
# From the text: Next, these intriguing microaggregates were further investigated using fluorescence recovery after photobleaching (FRAP) experiments. […] To directly visualize the liquid–solid phase separation process, we performed time‐lapse confocal microscopy on mixtures of DPMD and trypsin/chymotrypsin. Initially, numerous small, spherical DPMD‐rich microdroplets appeared upon enzyme addition and gradually grew into larger droplets within minutes (Figure S5A, Supporting Information). […] We next examined whether the enzyme–peptide aggregates remain stable under varying physiological conditions, such as changes in pH and enzyme concentration.
# Figure S5. (A) The CLSM images of DPMD with enzyme and DPMD without enzyme under different time. (B) Turbidity measurements result illustrating the phase separation of DPMD -treated trypsin and chymotrypsin at different concentrations or pH shifts . % represents the mass fraction of the DPMD/trypsin/chymotrypsin . (C) The CLSM images of DPMD with enzyme, DPMD without enzyme and DPMD with enzyme and aprotinin. (D&E) The CLSM images of DPMD with enzyme and DPMD without enzyme under different pH (D) or enzyme concentrations […]
# as §1
# 0.22μm filter to remove residue. The calcium content of the supernatant was measured using the Calcium ion detection kit (Beyotime) according to the recommended method. […]
# Peptide and enzyme solutions were prepared at varying concentrations and mixed at a 1:1 volume ratio. Solution turbidity was quantitatively assessed by monitoring absorbance at 405 nm using a BioTek spectrophotometer. For fluorescence-based characterization, peptides were labeled with FITC while enzymes were labeled with Cy5. […] For fluorescence recovery after photobleaching (FRAP) analysis, enzyme-aggregated patches were selectively bleached at 60% laser power using 488/640 nm lasers for 10 s, followed by time-lapse imaging at 1-min intervals. […] Fluorescence intensity in the photobleached region was measured using ImageJ software , with values normalized to pre-bleach baselines. […]
structure (smiles),measurement,setting,value
"CC[C@@H](C)[C@@H](NC(=O)[C@@H](CCC(N)=O)NC(=O)[C@H](NC(=O)[C@@H](Cc1ccc(O)cc1)NC(=O)CNC(=O)[C@@H](CC(C)C)NC(=O)[C@H](NC(=O)[C@@H](CO)NC(=O)CNC(=O)[C@@H](C)NC(=O)[C@@H](CC(=O)O)NC(=O)[C@@H](C)NC(=O)[C@@H](CCCNC(=N)N)NC(=O)[C@@H](C)NC(=O)[C@@H](CC(=O)O)NC(=O)[C@@H](C)NC(=O)[C@@H](CCCNC(=N)N)NC(=O)[C@@H](C)NC(=O)[C@@H](CC(=O)O)NC(=O)[C@@H](C)NC(=O)[C@@H](CCCNC(=N)N)NC(=O)[C@@H](C)NC(=O)[C@@H](CC(=O)O)NC(=O)[C@@H](C)NC(=O)[C@H](N)CCCNC(=N)N)C(C)C)[C@H](C)CC)C(=O)N[C@H](CCCNC(=N)N)C(=O)O [DPMD, Ac‐(D‐RADA)4‐CONH2] (H-[dR][dA][dD][dA][dR][dA][dD][dA][dR][dA][dD][dA][dR][dA][dD][dA]G[dS][dV][dL]G[dY][dI][dQ][dI][dR]-OH; N-terminus and C-terminus assumed)",fluorescence recovery after photobleaching of microaggregates in ascitic fluid,[1]; Figure S13B,minimal fluorescence recovery after photobleaching
same,proteolytic activity of trypsin and chymotrypsin in ascitic fluid,[1]; Figure S13D,markedly suppressed
same,phase separation by turbidity,"[2]; absorbance at 405 nm, DPMD and trypsin/chymotrypsin mixtures 1:1 volume, across a range of pH levels and enzyme concentrations, Figure S5B",robust phase separation
same,phase separation with aprotinin-neutralized protease,"[2]; enzyme pre-incubated with aprotinin, CLSM, Figure S5C",no significant phase separation occurred
same,aggregate formation at shifted pH,"[2]; pH 5.6 and pH 8.4, mixtures with trypsin/chymotrypsin, Figure S5D",still became cloudy and formed microscopically visible droplets/aggregates
